Source: patent publication US20230285323A1, “ESKETAMINE-SUSPENSION-TTS” (LTS LOHMANN THERAPIE-SYSTEME AG, priority 2020, published 2023)

Assay: Saturation concentration (solubility) of ketamine in silicone pressure sensitive adhesive

SMILES: CNC1(c2ccccc2Cl)CCCCC1=O (racemic) [ketamine, (RS)-(±)-2-(2-chlorophenyl)-2-(methylamino)cyclohexan-1-one]
- Solubility of ketamine in the silicone pressure sensitive adhesive: not more than 1 wt.-%
